Earlier results on one compound are cited in patent US20060178351A1, “Treatment of immune-mediated disorders with active vitamin D compounds alone or in combination with other therapeutic agents” (Novacea, Inc., priority 2003, published 2006).

The structures appear in SMILES notation.

For the data set the following is noted: relative to an equal dose of calcitriol.

For `C=C1/C(=C\C=C2/CCC[C@]3(C)C([C@H](C)CC#CC(C)(C)O)=CC[C@@H]23)C[C@@H](O)C[C@@H]1O` [Ro23-7553], the “Hypercalcemic effect compared to calcitriol” value is listed as “reduced hypercalcemic effect”.
